# Laboratory results as given in patent publication US8053627B2, “Methods for treating demyelination disorders” (University of Chicago, priority 2005, dated 2011).
# “And” between values parts separate entries of the source, which are not always exact repeats. Equal entries are not always repeated. Where two headings read alike, the source gives them in different places.
# Assays:
# [1] = tested on: corpus callosum of double transgenic mice treated with cuprizone; test: Cuprizone-induced demyelination/remyelination in GFAP/tTA; TRE/IFN-γ double transgenic mice (DOX− expresses IFN-γ); format: in vivo
# Protocol: The effects of IFN-γ on demyelination were evaluated in a cuprizone animal model using transgenic mice that allow for temporally regulated delivery of IFN-γ using the tetracycline controllable system (Lin, et al. (2004) J. Neurosci. 24: 10074-10083). The transgenic mice were generated by mating line 110 GFAP/tTA mice on the C57BL/6 background with line 184 TRE/IFN-γ on the C57BL/6 background to produce GFAP/tTA; TRE/IFN-γ double transgenic mice (Lin, et al. (2004) J. Neurosci. 24: 10074-10083). Transcriptional activation of the TRE/IFN-γ transgene by tTA was repressed in the control (DOX+) mice by adding 0.05 mg/ml doxycycline to the drinking water which was provided ad libitum from the day of conception. The DOX+ double transgenic mice were GFAP/tTA; TRE/IFN-γ double transgenic animals fed cuprizone chow and never released from the doxycycline solution. DOX− double transgenic mice were GFAP/tTA; TRE/IFN-γ double transgenic animals fed cuprizone chow and released from doxycycline to induce expression of IFN-γ.
# Demyelination was induced in 6-week-old DOX+ and DOX− male mice by feeding the mice a diet of milled mouse chow containing 0.2% cuprizone (Sigma-Aldrich, St. Louis, […].) for up to 6 weeks. Subsequently, both groups of mice were returned to a normal diet for up to 3 weeks to allow remyelination to occur. All animal procedures were conducted in complete compliance with the NIH Guide for the Care and Use of Laboratory Animals and were approved by the Institutional Animal Care and Use Committee of The University of Chicago.
# The expression of IFN-γ in these animals was examined by Enzyme-Linked Immunosorbent Assay (ELISA) analysis as follows. Spinal cord and forebrains were removed, rinsed in ice cold PBS, and immediately homogenized in five volumes of PBS with complete protease cocktail (Roche, Indianapolis, Ind.) using a motorized homogenizer. After incubation on ice for 5 min the extracts were cleared by centrifugation at 14000 rpm for 10 min. The protein content of each extract was determined by the DC protein assay (Bio-Rad, Hercules, Calif.). ELISA assays were performed using Mouse IFN-γ Quantikine ELISA kit (R&D system, Minneapolis, Minn.) and MBP antibodies (1:1000; Sternberger Monoclonals) according to the manufacture's instructions.
# Real time PCR was used to determine the effect of IFN-yon the expression of MHC-1. RNA was isolated from the corpus callosum (Jurevics, et al., 2002) using Trizol reagent (Invitrogen, Carlsbad, Calif.) and treated with DNAseI (Invitrogen, Carlsbad, Calif.) to eliminate genomic DNA. Reverse transcription was performed using Superscript First Strand Synthesis System for RT-PCR kit (Invitrogen, Carlsbad, Calif.). Real-time PCR was performed with iQ supermix (Bio-Rad, Hercules Calif.) on a Bio-Rad iQ real-time PCR detection system (Bio-Rad, Hercules Calif.). The primers and probes (Integrated DNA Technologies Inc., Coralville, Iowa) for real-time PCR were as follows:
# The effect of INF-γ on the population of oligodendrocytes was evaluated by immunohistochemical analysis of oligodendrocytes using an anti-CC1 antibody (APC7, 1:50; EMD Biosciences, Inc., La Jolla, Calif.) Immunohistochemistry was perfomed on brain sections obtained from mice that were first anesthetized mice and perfused through the left cardiac ventricle with 4% paraformaldehyde in 0.1M PBS. The brains were removed, postfixed with paraformaldehyde, cryopreserved in 30% sucrose, embedded in OCT and frozen on dry ice. Frozen sections were cut in a cryostat at a thickness of 10 μm. […]
# [2] = tested on: EAE-induced demyelination; conditions: for Mean of maximum clinical score (mean ± S.D.): 0–5 point scale; for Day of onset of disease (PID: postimmunization day): n = 25; for CD3 T cell infiltration in the lumbar spinal cord / EAE-induced demyelination: myelin, axons and oligodendrocytes in the lumbar spinal cord: PID 17
# [3] = PERK+/+ background, listed as INF-γ
# [4] = PERK+/+ background, peak of disease
substance,measurement,setting,value
IFN-γ: pleotropic cytokine secreted by activated T lymphocytes and natural killer cells; delivered to the CNS by transgene or added as recombinant protein,CC1 positive oligodendrocytes within the corpus callosum,"[1]; DOX− mice, 8 weeks",78±12.7 /0.04 mm2
same,NG2 positive OPCs in the corpus callosum,"[1]; DOX− mice, week 4 of cuprizone treatment",46±4.24 /0.04 mm^2
same,NG2 positive OPCs in the corpus callosum,"[1]; DOX− mice, week 6",31.5±0.71 /0.04 mm^2
same,"expression of myelin genes MBP, PLP and CGT","[1]; DOX− mice, week 6 and week 8",significantly depressed
same,remyelinated axons (EM),"[1]; DOX− mice, week 8",26.9%±7%
same,effect on the initial pathological processes induced by cuprizone exposure,[1]; demyelination phase,does not have a significant effect
same,expression of MHC-I in the corpus callosum (real-time PCR),[1]; during remyelination,significant increase
same,Incidence of death,[2]; DOX− double mice,0/25
same,Mean of maximum clinical score (mean ± S.D.),[2]; DOX− double mice,1.63 ± 0.51
same,MBP mRNA in the spinal cord vs age-matched naïve mice,"[2]; DOX− double mice, PID17",not significantly decreased
same,Day of onset of disease (PID: postimmunization day),[2]; DOX− double mice,14.7 ± 1.4
same,Incidence of hind limb paralysis,"[2]; DOX− double mice, listed as INF-γ",2 of 25 and 2/25
same,Incidence of death,[2]; DOX− triple mice (PERK+/−),3/25
same,Incidence of hind limb paralysis,[2]; DOX− triple mice (PERK+/−),18/25
same,Mean of maximum clinical score (mean ± S.D.),[2]; DOX− triple mice (PERK+/−),2.71 ± 1.11
same,Day of onset of disease (PID: postimmunization day),[2]; DOX− triple mice (PERK+/−),13.6 ± 0.8
same,CD3 positive T cell infiltration in the spinal cord,[2]; EAE onset,did not significantly affect
same,CD11b positive monocyte infiltration in the spinal cord,[2]; EAE onset,increased
same,"PERK-eIF2α pathway in oligodendrocytes (p-PERK, p-eIF2α colocalization with CC1)",[2]; EAE onset,markedly activated
same,"expression of iNOs, TNF-a, IL-2, IL-12 and IL-10 in the spinal cord (real time PCR)","[2]; EAE onset, PID14",strongly enhanced
same,"expression of iNOs, TNF-a, IL-2, IL-12 and IL-10 in the spinal cord (real time PCR)","[2]; EAE onset, PID14, listed as INF-γ",increased
same,CD3 T cell infiltration in the lumbar spinal cord,[2]; PERK+/+ background,reduced
same,"EAE-induced demyelination: myelin, axons and oligodendrocytes in the lumbar spinal cord",[2]; PERK+/+ background,protected
same,CD3 T cell infiltration in the lumbar spinal cord,[2]; [3],lower
same,"EAE-induced demyelination: myelin, axons and oligodendrocytes in the lumbar spinal cord",[2]; [3],remained almost intact
same,expression of IL-2 in spinal cord,[2]; [4],decreased
same,expression of IL-12 in spinal cord,[2]; [4],decreased
same,expression of IL-23 in spinal cord,[2]; [4],decreased
same,expression of IL-2 and IL-5 in the spinal cord (real time PCR),[2]; PID14,did not affect
same,amelioration of EAE,[2]; mice heterozygous for the PERK mutation,did not ameliorate
same,CD11b positive monocyte infiltration,[2]; peak of disease,did not change
same,expression of IL-5 in spinal cord,[2]; peak of disease,did not significantly affect
same,expression of IL-10 in spinal cord,[2]; peak of disease,did not significantly affect
same,expression of iNOs or TNF-γ,[2]; peak of disease,did not significantly affect
